Columns and labels:
[1] = 298.15 K; for surface tension liquid-gas: Pendant drop shape; for mass density: 101.33 kPa, Liquid
[2] = refractive index (Na D-line) (dimensionless); conditions: 298.15 K; 101.33 kPa; Liquid; Standard Abbe refractometry
[3] = xn = mol fraction of the nth substance listed; conditions: 298.15 K; for surface tension liquid-gas: Pendant drop shape; for mass density: 101.3 kPa, Liquid

CCOC(C)(C)C [2-ethoxy-2-methylpropane]
Conditions | mass density [kg/m3] | refractive index | surface tension liquid-gas [mN/m]
[1] | 735.44 | – | 19.73
[2] | – | 1.37319 | –

CCOC(C)(C)C [2-ethoxy-2-methylpropane] + CCCO
[3]
Conditions | mass density [kg/m3] | surface tension liquid-gas [mN/m]
x1 = 0.0572 | 795.04 | –
x1 = 0.067 | – | 23.58
x1 = 0.1043 | 791.43 | –
x1 = 0.171 | – | 22.81
x1 = 0.1752 | 786.11 | –
x1 = 0.2085 | 783.67 | –
x1 = 0.27 | 779.29 | –
x1 = 0.315 | – | 22.12
x1 = 0.3317 | 775.03 | –
x1 = 0.3732 | 772.24 | –
x1 = 0.412 | – | 21.48
x1 = 0.4205 | 769.2 | –
x1 = 0.4756 | 765.72 | –
x1 = 0.5326 | 762.15 | –
x1 = 0.5639 | 760.27 | –
x1 = 0.579 | – | 20.81
x1 = 0.621 | 756.93 | –
x1 = 0.682 | 753.59 | –
x1 = 0.7188 | 751.55 | –
x1 = 0.7551 | 749.37 | –
x1 = 0.763 | – | 20.25
x1 = 0.8334 | 745.06 | –
x1 = 0.8737 | 742.66 | –
x1 = 0.9142 | 740.45 | –
x1 = 0.9567 | 737.98 | –

CCCO [propan-1-ol]
Conditions | mass density [kg/m3] | refractive index | surface tension liquid-gas [mN/m]
[1] | 799.49 | – | 23.89
[2] | – | 1.38333 | –

Source: the NIST ThermoML archive (doi:10.1016/j.fluid.2007.04.009)
